Data taken from ChEMBL document CHEMBL1151671, “Cytotoxic oxygenated desmosterols of the red alga Galaxaura marginata” (1996).
Converted amounts (≈) assume the structure as drawn.

Legend:
Type in all cases: functional
Settings in all cases: read-out: ED50 (the source's name)
A549 = assay: Cytotoxicity against human A549 cells by MTT assay
HT-29 = assay: Cytotoxicity against human HT29 cells by MTT assay
KB = assay: Cytotoxicity against human KB cells by MTT assay
P388 = assay: Cytotoxicity against mouse P388 cells by MTT assay

Row | Compound | EC50 (A549) | EC50 (HT-29) | EC50 (KB) | EC50 (P388)
1 | C=C(C)C(CC[C@@H](C)[C@H]1CC[C@H]2[C@@H]3CC=C4C[C@@H](O)CC[C@]4(C)[C@H]3CC[C@]12C)OO (stereo partly specified) | 0.64 µg/mL (≈ 1.54 µM) | 0.43 µg/mL (≈ 1.03 µM) | 0.33 µg/mL (≈ 0.792 µM) | 0.26 µg/mL (≈ 0.624 µM)
2 | C[C@H](C/C=C/C(C)(C)OO)[C@H]1CC[C@H]2[C@@H]3CC=C4C[C@@H](O)CC[C@]4(C)[C@H]3CC[C@]12C | – | – | – | 0.22 µg/mL (≈ 0.528 µM)
3 | C[C@H](C/C=C/C(C)(C)O)[C@H]1CC[C@H]2[C@@H]3CC=C4C[C@@H](O)CC[C@]4(C)[C@H]3CC[C@]12C | 1.08 µg/mL (≈ 2.7 µM) | 0.6 µg/mL (≈ 1.5 µM) | 0.61 µg/mL (≈ 1.52 µM) | 0.15 µg/mL (≈ 0.374 µM)
4 | C=C(C)C(O)CC[C@@H](C)[C@H]1CC[C@H]2[C@@H]3CC=C4C[C@@H](O)CC[C@]4(C)[C@H]3CC[C@]12C (stereo partly specified) | 1.61 µg/mL (≈ 4.02 µM) | 0.37 µg/mL (≈ 0.924 µM) | 0.67 µg/mL (≈ 1.67 µM) | 0.36 µg/mL (≈ 0.899 µM)
5 | C[C@H](CCC1OC1(C)C)[C@H]1CC[C@H]2[C@@H]3C[C@@H](O)C4=CC(=O)CC[C@]4(C)[C@H]3CC[C@]12C (mixture of isomers) | 3.14 µg/mL | 0.87 µg/mL | 0.3 µg/mL | 0.75 µg/mL
6 | CC(C)=CCC[C@@H](C)[C@H]1CC[C@H]2[C@@H]3CC=C4C[C@@H](O)CC[C@]4(C)[C@H]3CC[C@]12C [DESMOSTEROL] | > 50 µg/mL | > 50 µg/mL | > 50 µg/mL | 33.5 µg/mL (≈ 87.2 µM)
